Measurements reported in patent publication US4387106A, “Method of treating atherosclerosis with di(aralkyl)ureas and di(aralkyl)thioureas” (American Cyanamid Company, priority 1982, dated 1983).

These compounds were tested on Cholesterol absorption (assay: not given). Settings: po, 0.03 % of diet, 336 h.

`CCOC(=O)c1ccc(NC(=O)N(Cc2ccccc2)Cc2ccccc2)cc1` [1,1-Dibenzyl-3-(4-carboethoxyphenyl)urea] was tested, and the “Result (inhibition of cholesterol absorption: lowering of serum or liver cholesterol relative to control)” value was “Active”.
For `O=C(Nc1ccccc1C(F)(F)F)N(Cc1ccccc1)Cc1ccccc1` [1,1-Dibenzyl-3-(2-trifluoromethylphenyl)urea], the “Result (inhibition of cholesterol absorption: lowering of serum or liver cholesterol relative to control)” value was “Active”.
With `Cc1cccc(NC(=S)N(Cc2ccccc2)Cc2ccccc2)c1` [1,1-Dibenzyl-3-(3-methylphenyl)thiourea] the “Result (inhibition of cholesterol absorption: lowering of serum or liver cholesterol relative to control)” value was “Active”.
For `Cc1ccc(NC(=S)N(Cc2ccccc2)Cc2ccccc2)c(C)c1` [1,1-Dibenzyl-3-(2,4-dimethylphenyl)thiourea], the “Result (inhibition of cholesterol absorption: lowering of serum or liver cholesterol relative to control)” value was “Active”.
With `O=C(Nc1cccc(Br)c1)N(Cc1ccccc1)Cc1ccccc1` [1,1-Dibenzyl-3-(3-bromophenyl)urea] the “Result (inhibition of cholesterol absorption: lowering of serum or liver cholesterol relative to control)” value was “Active”.
In the case of `O=C(Nc1ccc(Cl)cc1Cl)N(Cc1ccccc1)Cc1ccccc1` [1,1-Dibenzyl-3-(2,4-dichlorophenyl)urea], the “Result (inhibition of cholesterol absorption: lowering of serum or liver cholesterol relative to control)” value is reported as “Active”.
In the case of `Cc1ccc(NC(=S)N(Cc2ccccc2)Cc2ccccc2)cc1Cl` [1,1-Dibenzyl-3-(3-chloro-4-methylphenyl)thiourea], the “Result (inhibition of cholesterol absorption: lowering of serum or liver cholesterol relative to control)” value is reported as “Active”.

Each compound was assayed against T1, fatty acyl CoA:cholesterol acyl transferase (ACAT) (Rattus norvegicus, UniProt O70536) (assay: In vitro inhibition of fatty acyl CoA:cholesterol acyl transferase (ACAT), rat adrenal supernatant). Settings: final concentration 5.2 μg./ml., pH 7.4, 37° C., oleoyl CoA (14C).
T1 construct: The supernatant, containing the microsomal fraction, served as the source of the cholesterol-esterifying enzyme; from tissue; host or cells: rat adrenals, homogenate, 1000 x g supernatant containing the microsomal fraction
T1 sequence (O70536 1-545): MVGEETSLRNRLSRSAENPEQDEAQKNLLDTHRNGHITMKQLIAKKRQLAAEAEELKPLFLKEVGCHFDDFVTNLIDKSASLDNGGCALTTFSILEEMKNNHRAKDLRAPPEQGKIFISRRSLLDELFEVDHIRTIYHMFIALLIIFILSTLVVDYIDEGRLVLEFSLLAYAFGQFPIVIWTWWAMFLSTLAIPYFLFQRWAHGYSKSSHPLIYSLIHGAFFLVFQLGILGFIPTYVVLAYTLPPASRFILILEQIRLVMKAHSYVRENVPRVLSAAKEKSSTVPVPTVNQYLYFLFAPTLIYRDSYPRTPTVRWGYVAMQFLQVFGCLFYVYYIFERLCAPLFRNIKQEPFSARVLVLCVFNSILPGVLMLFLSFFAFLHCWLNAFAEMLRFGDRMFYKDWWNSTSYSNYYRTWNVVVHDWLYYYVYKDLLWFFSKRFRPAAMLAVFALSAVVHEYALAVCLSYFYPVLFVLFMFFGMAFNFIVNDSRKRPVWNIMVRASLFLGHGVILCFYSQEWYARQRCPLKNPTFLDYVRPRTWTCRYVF
Type: biochemical
Protocol: The compounds were tested for their ability to inhibit ACAT according to the following procedure:
Rat adrenals were homogenized in 0.2 M monobasic potassium phosphate buffer, pH 7.4, and centrifuged at 1000 times gravity for 15 minutes at 5° C. The supernatant, containing the microsomal fraction, served as the source of the cholesterol-esterifying enzyme, fatty acyl CoA:cholesterol acyl transferase (ACAT). A mixture comprising 50 parts of adrenal supernatant, 10 parts of albumin (BSA) (50 mg./ml.), 3 parts of test compound (final concentration 5.2 μg./ml.) and 500 parts of buffer was preincubated at 37° C. for 10 minutes. After treatment with 20 parts of oleoyl CoA (^14 C--0.4 μCi) the mixture was incubated at 37° C. for 10 minutes. A control mixture, omitting the test compound, was prepared and treated in the same manner. The lipids from the incubation mixture were extracted into an organic solvent and separated by thin-layer chromatography. The cholesteryl ester fraction was counted in a scintillation counter.

Point of comparison: `Cc1cccc(NC(=O)N(Cc2ccccc2)Cc2ccccc2)c1` [1,1-Dibenzyl-3-(3-methylphenyl)urea], inhibition at 5.2 µg/mL 88.9%. Against it:
- O=C(Nc1c(Cl)cccc1Cl)N(Cc1ccccc1)Cc1ccccc1 [1,1-Dibenzyl-3-(2,6-dichlorophenyl)urea] — lower, 88.6%
- O=C(Nc1ccc(Cl)cc1)N(Cc1ccccc1)Cc1ccccc1 [1,1-Dibenzyl-3-(4-chlorophenyl)urea] — lower, 77.5%
- COc1cccc(NC(=O)N(Cc2ccccc2)Cc2ccccc2)c1 [1,1-Dibenzyl-3-(3-methoxyphenyl)urea] — lower, 87%
- CCCCOc1ccc(NC(=O)N(Cc2ccccc2)Cc2ccccc2)cc1 [1,1-Dibenzyl-3-(4-n-butoxyphenyl)urea] — higher, 90.2%
- FC(F)(F)c1cccc(NC(=S)N(Cc2ccccc2)Cc2ccccc2)c1 [1,1-Dibenzyl-3-(3-trifluoromethylphenyl)thiourea] — lower, 88.6%
- CCOC(=O)c1ccc(NC(=O)N(Cc2ccccc2)Cc2ccccc2)cc1 [1,1-Dibenzyl-3-(4-carboethoxyphenyl)urea] — higher, 94.9%
- O=C(Nc1ccc(Cl)c(Cl)c1)N(Cc1ccccc1)Cc1ccccc1 [1,1-Dibenzyl-3-(3,4-dichlorophenyl)urea] — higher, 94.5%
- O=C(Nc1ccccc1C(F)(F)F)N(Cc1ccccc1)Cc1ccccc1 [1,1-Dibenzyl-3-(2-trifluoromethylphenyl)urea] — lower, 68.4%
- CCOC(=O)c1ccc(NC(=S)N(Cc2ccccc2)Cc2ccccc2)cc1 [1,1-Dibenzyl-3-(4-carboethoxyphenyl)thiourea] — lower, 76.6%
- O=C(Nc1cccc([N+](=O)[O-])c1)N(Cc1ccccc1)Cc1ccccc1 [1,1-Dibenzyl-3-(3-nitrophenyl)urea] — lower, 81.3%
- Cc1cccc(NC(=S)N(Cc2ccccc2)Cc2ccccc2)c1 [1,1-Dibenzyl-3-(3-methylphenyl)thiourea] — lower, 71.2%
- O=C(Nc1ccccc1Br)N(Cc1ccccc1)Cc1ccccc1 [1,1-Dibenzyl-3-(2-bromophenyl)urea] — higher, 93.9%
- Cc1ccc(C)c(NC(=O)N(Cc2ccccc2)Cc2ccccc2)c1 [1,1-Dibenzyl-3-(2,5-dimethylphenyl)urea] — higher, 89.1%
- CC(C)c1cccc(C(C)C)c1NC(=O)N(Cc1ccccc1)Cc1ccccc1 [1,1-Dibenzyl-3-(2,6-isopropylphenyl)urea, 1,1-Dibenzyl-3-(2,6-diisopropylphenyl)urea] — lower, 59.1%
- COc1ccccc1NC(=O)N(Cc1ccccc1)Cc1ccccc1 [1,1-Dibenzyl-3-(2-methoxyphenyl)urea] — higher, 91%
- COc1ccc(OC)c(NC(=O)N(Cc2ccccc2)Cc2ccccc2)c1 [1,1-Dibenzyl-3-(2,5-dimethoxyphenyl)urea] — lower, 87.9%
- Cc1ccc(NC(=S)N(Cc2ccccc2)Cc2ccccc2)c(C)c1 [1,1-Dibenzyl-3-(2,4-dimethylphenyl)thiourea] — lower, 78.7%
- Cc1cccc(C)c1NC(=O)N(Cc1ccccc1)Cc1ccccc1 [1,1-Dibenzyl-3-(2,6-dimethylphenyl)urea] — lower, 56.1%
- CCc1cccc(CC)c1NC(=O)N(Cc1ccccc1)Cc1ccccc1 [1,1-Dibenzyl-3-(2,6-diethylphenyl)urea] — lower, 72%
- O=C(Nc1cccc(Br)c1)N(Cc1ccccc1)Cc1ccccc1 [1,1-Dibenzyl-3-(3-bromophenyl)urea] — higher, 91.9%
- CSc1ccc(NC(=O)N(Cc2ccccc2)Cc2ccccc2)cc1 [1,1-Dibenzyl-3-(4-methylthiophenyl)urea] — lower, 67.1%
- Cc1ccc(NC(=O)N(Cc2ccccc2)Cc2ccccc2)cc1 [1,1-Dibenzyl-3-(4-methylphenyl)urea] — higher, 89.8%
- Cc1ccccc1NC(=O)N(Cc1ccccc1)Cc1ccccc1 [1,1-Dibenzyl-3-(2-methylphenyl)urea] — lower, 77%
- O=C(Nc1ccc(Cl)cc1Cl)N(Cc1ccccc1)Cc1ccccc1 [1,1-Dibenzyl-3-(2,4-dichlorophenyl)urea] — lower, 83.3%
- Cc1ccc(NC(=S)N(Cc2ccccc2)Cc2ccccc2)cc1Cl [1,1-Dibenzyl-3-(3-chloro-4-methylphenyl)thiourea] — higher, 94.1%
- O=C(Nc1cccc2ccccc12)N(Cc1ccccc1)Cc1ccccc1 [1,1-Dibenzyl-3-(2,3-dibenzophenyl)urea] — higher, 90%
- O=C(Nc1ccc(Cl)c(C(F)(F)F)c1)N(Cc1ccccc1)Cc1ccccc1 [1,1-Dibenzyl-3-(4-chloro-3-trifluoromethylphenyl)urea] — higher, 92%
- Cc1c(Cl)cccc1NC(=O)N(Cc1ccccc1)Cc1ccccc1 [1,1-Dibenzyl-3-(3-chloro-2-methylphenyl)urea] — lower, 83.8%
- O=C(Nc1cc(Cl)cc(Cl)c1)N(Cc1ccccc1)Cc1ccccc1 [1,1-Dibenzyl-3-(3,5-dichlorophenyl)urea] — lower, 86.1%
- CCc1cccc(C)c1NC(=O)N(Cc1ccccc1)Cc1ccccc1 [1,1-Dibenzyl-3-(6-ethyl-2-methylphenyl)urea] — lower, 73.6%
- CC(=O)c1cccc(NC(=O)N(Cc2ccccc2)Cc2ccccc2)c1 [1,1-Dibenzyl-3-(3-acetylphenyl)urea] — lower, 80.7%
- O=C(Nc1ccccc1)N(Cc1ccccc1)Cc1ccccc1 [1,1-Dibenzyl-3-phenylurea, 1,1-Dibenzyl-3-phenyl urea] — higher, 90.4%
- O=C(Nc1cccc(Cl)c1)N(Cc1ccccc1)Cc1ccccc1 [1,1-Dibenzyl-3-(3-chlorophenyl)urea] — higher, 94.2%
- O=C(Nc1ccc(Br)cc1)N(Cc1ccccc1)Cc1ccccc1 [1,1-Dibenzyl-3-(4-bromophenyl)urea] — lower, 79.9%
- O=C(Nc1cccc(C(F)(F)F)c1)N(Cc1ccccc1)Cc1ccccc1 [1,1-Dibenzyl-3-(3-trifluoromethylphenyl)urea] — higher, 94.2%
- Cc1cc(C)cc(NC(=O)N(Cc2ccccc2)Cc2ccccc2)c1 [1,1-Dibenzyl-3-(3,5-dimethylphenyl)urea] — higher, 90.2%
- O=C(Nc1ccc(Br)cc1Br)N(Cc1ccccc1)Cc1ccccc1 [1,1-Dibenzyl-3-(2,4-dibromophenyl)urea] — lower, 81.9%
- CCOc1ccc(NC(=O)N(Cc2ccccc2)Cc2ccccc2)cc1 [1,1-Dibenzyl-3-(4-ethoxyphenyl)urea] — higher, 95.8%
- O=C(Nc1cc(Cl)ccc1Cl)N(Cc1ccccc1)Cc1ccccc1 [1,1-Dibenzyl-3-(2,5-dichlorophenyl)urea] — lower, 82.4%
- O=C(Nc1ccccc1Cl)N(Cc1ccccc1)Cc1ccccc1 [1,1-Dibenzyl-3-(2-chlorophenyl)urea] — lower, 87.8%
- O=C(Nc1cc(F)ccc1F)N(Cc1ccccc1)Cc1ccccc1 [1,1-Dibenzyl-3-(2,5-difluorophenyl)urea] — lower, 72%
- Cc1cccc(Cl)c1NC(=O)N(Cc1ccccc1)Cc1ccccc1 [1,1-Dibenzyl-3-(6-chloro-2-methylphenyl)urea] — lower, 83.9%
- O=C(Nc1ccc([N+](=O)[O-])cc1)N(Cc1ccccc1)Cc1ccccc1 [1,1-Dibenzyl-3-(4-nitrophenyl)urea] — lower, 52.2%
- O=C(Nc1cccc(Cl)c1Cl)N(Cc1ccccc1)Cc1ccccc1 [1,1-Dibenzyl-3-(2,3-dichlorophenyl)urea] — lower, 79.7%
- COc1ccc(NC(=O)N(Cc2ccccc2)Cc2ccccc2)cc1 [1,1-Dibenzyl-3-(4-methoxyphenyl)urea] — lower, 71.6%
- O=C(Nc1ccc(I)cc1)N(Cc1ccccc1)Cc1ccccc1 [1,1-Dibenzyl-3-(4-iodophenyl)urea] — lower, 85.2%
- O=C(O)c1ccc(NC(=O)N(Cc2ccccc2)Cc2ccccc2)cc1 [1,1-Dibenzyl-3-(4-carboxyphenyl)urea] — lower, 14.1%

Same assay, conditions: pH 7.4, final concentration 5.2 μg./ml., pH 7.4, 37° C., oleoyl CoA (14C)

Point of comparison: `O=C(Nc1ccc2ccccc2c1)N(Cc1ccccc1)Cc1ccccc1` [1,1-Dibenzyl-3-(3,4-dibenzophenyl)urea], inhibition at 5.2 µg/mL 97.3%. Against it:
- Cc1ccc(NC(=O)N(Cc2ccccc2)Cc2ccccc2)cc1 [1,1-Dibenzyl-3-(4-methylphenyl)urea] — lower, 86.5%
